Molecules are shown by their SMILES. The source made the active and inactive calls. No cut-off for these calls is given here.

For data set [1], the system named is A549. Description: Antiproliferative activity against human A549 cells assessed as inhibition of cell growth incubated for 48 hrs by MTT assay. The class given is functional, cell-based. As to conditions: A549, 48 h. Background: Formazan colour is commonly taken as a measure of viable cells.
Data set [2] has as its target T1, Poly [ADP-ribose] polymerase 2 (Homo sapiens, UniProt Q9UGN5). Description: Inhibition of human PARP2 using NAD+ as substrate incubated for 1 hr by ELISA. In general terms: An ELISA detects its analyte on a solid surface through an enzyme-linked reagent.
The subject of the next data set is Mus musculus. Nature of the data set: In vivo inhibition of PARP1 in athymic BALB/c mouse xenografted with human BRCA1 mutant MDA-MB-436 cells assessed as prevention of PAR formation 50 mg/kg/day, po measured after 48 hrs by Western blot analysis. Format: functional, organism-based.
Data set [3] in a line: Toxicity athymic BALB/c mouse xenografted with human BRCA1 mutant MDA-MB-436 cells assessed as change in body weight at 50 mg/kg/day, po administered for 18 days and measured twice weekly. The class given is organism-based. As to conditions: in vivo, 432 h, time 18 day. A general note: Xenograft models place foreign cells or tissue in a host animal.
The next data set relates to MDA-MB-436. Nature of the data set: Antitumor activity against human BRCA1 mutant MDA-MB-436 cells xenografted athymic BALB/c mouse assessed as inhibition of tumor volume at 50 mg/kg/day, po administered for 18 days and measured twice weekly. The class given is functional, organism-based. Conditions: time 18.0 day.
In data set [4] the target is T1, Poly [ADP-ribose] polymerase 2. Description: Inhibition of human PARP2 using NAD+ as substrate at 5 nM incubated for 1 hr by ELISA relative to control.
For the next data set, the system named is MCF7. Nature of the data set: Antiproliferative activity against human MCF7 cells assessed as inhibition of cell growth incubated for 48 hrs by MTT assay. The class given is functional, cell-based. Conditions: MCF7, 48 h.
The subject of data set [5] is A549. Nature of the data set: […] human A549 cells assessed as reduction in PAR level measured after 48 hrs by Western blot analysis. Conditions: dose 2.5-10 µM, DDE = dose-dependent effect. The class given is functional, cell-based.
In data set [6] the target is T2, Poly [ADP-ribose] polymerase 1 (Homo sapiens, UniProt P09874). Nature of the data set: Inhibition of human PARP1 using NAD+ as substrate at 5 nM incubated for 1 hr by ELISA relative to control.
The target of data set [7] is T2, Poly [ADP-ribose] polymerase 1. Description: Inhibition of human PARP1 using NAD+ as substrate incubated for 1 hr by ELISA.
In another data set the test system is MX1. Nature of the data set: Antiproliferative activity against human BRCA mutant MX1 cells assessed as inhibition of cell growth incubated for 48 hrs by MTT assay. As to conditions: MX1, 48 h. The class given is functional, cell-based.

T2 sequence (P09874 whole entry): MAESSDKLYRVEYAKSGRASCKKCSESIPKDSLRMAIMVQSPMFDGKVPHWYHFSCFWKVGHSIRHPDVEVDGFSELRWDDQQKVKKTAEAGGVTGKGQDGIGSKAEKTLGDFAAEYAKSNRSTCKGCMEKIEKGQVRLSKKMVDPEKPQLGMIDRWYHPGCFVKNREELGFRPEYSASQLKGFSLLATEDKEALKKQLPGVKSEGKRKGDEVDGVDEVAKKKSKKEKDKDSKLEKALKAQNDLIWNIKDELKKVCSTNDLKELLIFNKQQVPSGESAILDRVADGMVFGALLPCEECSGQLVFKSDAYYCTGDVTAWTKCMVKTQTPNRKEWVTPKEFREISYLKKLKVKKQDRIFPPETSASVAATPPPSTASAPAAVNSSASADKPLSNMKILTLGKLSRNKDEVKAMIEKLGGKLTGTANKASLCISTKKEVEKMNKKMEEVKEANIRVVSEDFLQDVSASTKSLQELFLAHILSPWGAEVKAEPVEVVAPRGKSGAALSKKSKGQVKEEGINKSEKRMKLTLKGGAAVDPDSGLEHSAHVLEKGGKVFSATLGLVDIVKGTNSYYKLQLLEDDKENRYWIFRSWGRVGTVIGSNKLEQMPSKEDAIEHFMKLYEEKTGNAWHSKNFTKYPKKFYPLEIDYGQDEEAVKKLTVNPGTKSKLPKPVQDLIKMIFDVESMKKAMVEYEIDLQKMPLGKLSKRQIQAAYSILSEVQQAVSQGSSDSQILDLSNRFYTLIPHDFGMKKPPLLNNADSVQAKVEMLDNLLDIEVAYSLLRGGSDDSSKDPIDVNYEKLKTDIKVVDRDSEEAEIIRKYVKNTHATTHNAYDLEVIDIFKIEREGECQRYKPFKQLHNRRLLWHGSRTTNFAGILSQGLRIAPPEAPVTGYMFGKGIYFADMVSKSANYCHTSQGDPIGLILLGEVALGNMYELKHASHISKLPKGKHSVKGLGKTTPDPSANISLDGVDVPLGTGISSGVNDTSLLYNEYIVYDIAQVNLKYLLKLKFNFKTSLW
T1 sequence (Q9UGN5 whole entry): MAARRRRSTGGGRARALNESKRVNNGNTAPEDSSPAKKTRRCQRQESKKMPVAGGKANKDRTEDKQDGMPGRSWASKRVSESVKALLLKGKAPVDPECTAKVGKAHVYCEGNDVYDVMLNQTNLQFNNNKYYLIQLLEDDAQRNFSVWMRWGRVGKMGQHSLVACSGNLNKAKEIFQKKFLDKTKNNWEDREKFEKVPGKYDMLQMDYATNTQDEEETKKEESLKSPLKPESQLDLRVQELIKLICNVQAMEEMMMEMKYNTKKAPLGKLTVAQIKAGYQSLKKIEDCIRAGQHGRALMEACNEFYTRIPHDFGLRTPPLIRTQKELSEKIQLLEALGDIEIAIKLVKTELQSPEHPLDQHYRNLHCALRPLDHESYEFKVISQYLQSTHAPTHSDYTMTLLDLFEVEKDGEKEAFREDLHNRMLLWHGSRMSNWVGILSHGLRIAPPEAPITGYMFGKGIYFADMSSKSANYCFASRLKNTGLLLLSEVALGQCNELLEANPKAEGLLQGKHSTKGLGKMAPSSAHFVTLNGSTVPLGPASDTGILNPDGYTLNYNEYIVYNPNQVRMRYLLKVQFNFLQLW

As a reminder, the IC50 is the concentration at which inhibition is half-maximal. As usually defined, the inhibition is the change of the read-out against control, counted positive when it falls. In the case of `NC1CCN(Cc2cccc(-c3[nH]c4cc(F)cc5c4c3CCNC5=O)c2)CC1`, the IC50 in the data set on A549 [1] is 106 µM; in data set [2], 0.0619 µM; in the data set with MCF7 it was 124 µM; in [7], 0.00096 µM; with MX1, 9.46 µM. For the same compound, the inhibition result with Mus musculus was “Active”. Besides, the figures for the Activity result (in data set [3]; with A549 [5]) were “Non-Toxic” and “Dde”, respectively. Further, the outcome in the data set on MDA-MB-436 was Active. Besides, the inhibition stood at 15.3% in data set [4] and 85.8% in data set [6].

For the compound `C[C@@H]1CN(Cc2ccc(-c3[nH]c4cc(F)cc5c4c3CCNC5=O)cc2)CCN1`, the IC50 with A549 [1] came out at 48.2 µM; in data set [2], 0.00291 µM; in the data set with MCF7, 46.5 µM; in [7], 0.00066 µM; in the data set with MX1, 16.8 µM. Moreover, the inhibition result with Mus musculus was “Active”. The Activity entry in data set [3] was “Toxic”. In addition, in the data set with MDA-MB-436, the result was Active. For the same compound, the inhibition in [4] is 58.8%; in data set [6], 90.4%.
